# Test results taken from US8946190B2, “Medium-chain length fatty acids, salts and triglycerides in combination with gemcitabine for treatment of pancreatic cancer” (priority 2007, dated 2015).
# Legend:
# Panc02 cells = test: In vitro cytotoxicity (MTT) on pancreatic cancer cells; format: cell-based; conditions: Mus musculus, 24 h cell culture
# Procedure: This assay was performed to determine the effect of compounds of the present invention on cell cytotoxicity. Panc02 cells were incubated in presence or absence of compounds in RPMI-1640 conditioned media. After 24 hours incubation, 50 μl of 3-(4,5-dimethyl-2-thiazyl)-2,5-diphenyl-2H-tetrazolium bromide ([…]; 2 mg/ml) was added and further incubated for 4 hours. The supernatant was discarded and 100 μl of dimethylsulfoxide (DMSO) was added. Absorbance was read at 570 nm with an ELISA Tecan Sunrise plate reader. The control group consisted of cells without compounds and is referred to as 100% of viable cells. IC50 was determined using Prism software.
# [1] = test system: metastatic pancreatic cancer; conditions: pancreatic cancer patients after metastasis; cited from earlier work
# [2] = test system: syngeneic Panc02 pancreas tumor; test: Panc02 mouse pancreatic cancer model, intradermal syngeneic tumor growth; format: in vivo, C57BL/6 mice
# [3] = test system: syngeneic Panc02 pancreas tumor; test: as above; format: in vivo, C57BL/6 mice; conditions: for anticancer activity in the early phase of the treatment: given alone
# Procedure: The syngeneic Panc02 is a pancreatic adenocarcinoma tumor cell line obtained from NCI (0507232). Panc02 cells are positive for Ki-Ras, p53, HerNEU and CDK. Panc02 were grown in RPMI-1640 containing 10% fetal bovine serum. At day 0, 50 μl of 7.5×10^5 viable Panc02 cells were intradermally injected to produce localized tumors in 6- to 8-week old C57BL/6 mice. The animals were then serially monitored by manual palpation for evidence of tumor. Mice were then treated every day with oral administration of vehicle (negative control), or sodium decanoate and with intraperitoneal injection of gemcitabine (50 mg/kg) at day 21, 28, 35 and 42. Mice were sacrificed between days 36 to 50. Serial tumor volume was obtained by bi-dimensional diameter measurements with calipers, using the formula 0.4 (a×b^2) where “a” was the major tumor diameter and “b” the minor perpendicular diameter. Tumors were palpable, in general, 3-5 days post-inoculation. Percentage of tumor growth is reported as the percentage of growth of the pancreatic tumor on a given day relative to that growth which is observed on the first day of treatment with medium-chain length fatty acid, or sodium salt or triglyceride or vehicle (control). T/C is defined as: Treated Tumor Growth CYO/Control Tumor Growth (%).
# The effect of sodium dodecanoate and gemcitabine in pancreatic Panc02 cancer was determined as described in Example 2.
# [4] = test system: orthotopic syngeneic Panc02 pancreatic tumor; test: Panc02 mouse orthotopic pancreatic cancer model, survival; format: in vivo, C57BL/6 mice; parameters: % Survival: concentration or dose not given beside the values; conditions: for % Survival: Table 2
# Procedure: At day 0, 50 μl of 1×10^6 viable Panc02 cells per ml were injected onto the pancreas to produce orthotopic tumors in 6- to 8-week old C57BL/6 mice. Mice were then treated every day with oral administration of vehicle (negative control), or sodium decanoate and with intraperitoneal injection of gemcitabine (50 mg/kg) once a week (day 1, 8, 15, etc.).
# The effect of gemcitabine and tricaprin in combination with gemcitabine in orthotopic pancreatic Panc02 cancer was determined as described in Example 3.
compound,measurement,setting,value
CCCCCCCCCC(=O)O [Decanoic acid],IC50,Panc02 cells,630 µM
Nc1ccn([C@@H]2O[C@H](CO)[C@@H](O)C2(F)F)c(=O)n1 [Gemcitabine],one-year survival,[1],18%
same,T/C,"[2]; FIG. 3, gemcitabine 25 mg/kg alone",> 40
same,inhibition of tumor growth (p<0.05),"[2]; FIG. 3, gemcitabine 25 mg/kg, day 39",significant inhibition
same,T/C,"[2]; FIG. 4, gemcitabine 10 mg/kg alone",no T/C<40
same,inhibition of tumor growth (p<0.05),"[2]; FIG. 4, gemcitabine 10 mg/kg, day 41",significant inhibition
same,inhibition of tumor growth (p<0.05),"[3]; FIG. 1, gemcitabine 50 mg/kg, day 27 to 34",significant inhibition
same,inhibition of tumor growth (p<0.05),"[3]; FIG. 2, gemcitabine alone, day 23 to 37",significant (p<0.05) inhibition
same,anticancer activity in the early phase of the treatment,[3]; FIG. 3,did not display anticancer activities
same,anticancer activity in the early phase of the treatment,[3]; FIG. 4,did not display anticancer activities
same,inhibition of tumor growth (p<0.05),"[3]; FIG. 6, gemcitabine 50 mg/kg, day 44",significant inhibition
same,mortality,[3]; increased concentration of gemcitabine,mortality is observed
same,survival compared with mice that had received vehicle,[4]; FIG. 5,prolonged survival
same,Median survival,"[4]; FIG. 5, gemcitabine 50 mg/kg once a week, sodium decanoate oral 200 mg/kg every day",71 days
same,survival compared with mice that had received vehicle,[4]; FIG. 7,prolonged survival
same,Median survival,"[4]; FIG. 7, gemcitabine 50 mg/kg, tricaprin oral 600 mg/kg",53.5 days
same,% Survival,[4]; day 58,86%
same,% Survival,[4]; day 72,42%
same,% Survival,[4]; day 83,28%
same,% Survival,[4]; day 87,14%
same,% Survival,[4]; day 92,0%
same,% Survival,"[4]; day 92, listed as gemcitabine",all mice are dead
CCCCCCCCCC(=O)[O-].[Na+] [PBI-1402],anticancer activity in the early phase of the treatment,[3]; FIG. 3,did not display anticancer activities
same,anticancer activity in the early phase of the treatment,[3]; FIG. 4,did not display anticancer activities
CCCCCCCCCC(=O)[O-].[Na+] [Sodium decanoate],IC50,Panc02 cells,520 µM
same,inhibition of tumor growth (p<0.05),"[3]; FIG. 1, sodium decanoate oral 100 mg/kg, day 23 to 44",significant inhibition
same,tumor growth inhibition compared to control (p<0.05),"[3]; FIG. 2, sodium decanoate 400 mg/kg, day 23 to 37",significant
same,inhibition of tumor growth (p<0.05),"[3]; FIG. 2, sodium decanoate oral 100, 200 and 400 mg/kg",significant (p<0.05) inhibition of the tumor growth in a dose dependent fashion
CCCCCCCCCCCC(=O)[O-].[Na+] [Sodium dodecanoate],IC50,Panc02 cells,150 µM
same,inhibition of tumor growth (p<0.05),"[3]; FIG. 6, sodium dodecanoate oral 200 mg/kg, day 44",significant inhibition
